Reference: paper PMC11371747, “The role of l-leucovorin uptake and metabolism in the modulation of 5-fluorouracil efficacy and antifolate toxicity” (Frontiers in Pharmacology, 2024)
“And” between values parts separate entries of the source, which are not always exact repeats. Equal entries are not always repeated. Where two headings read alike, the source gives them in different places.

Assays:
[1] = tested on: CHO/C5-PCFT cells; test: Growth inhibition, SRB assay, CHO/C5-PCFT (PCFT-transfected); format: cell-based, Chinese hamster
Method: (§1) Briefly, cells were seeded in triplicate in 96-well plates at their pre-established optimal density (CHO cells: 2,500 cells/100 μL; WiDr and HT29: 3,500 cells/100 μL; WiDr-LF/LV, LS174T: 5,000 cells/100 μL; CaCo2, CaCo2-LF/LV, H292, H28 and MSTO-211H: 6,000 cells/100 μL; H460, SW948 and SW1398: 7,000 cells/100 μL) and were allowed to attach for ∼ 24 h at 37°C in 5% CO2 and 100% humidified incubator. Thereafter, 100 μL of drug dilution without LV, or with 5 μM l-LV/5 μM d-LV/10 μM dL-LV (or any LV alone) were added. Cells were allowed to grow for 72 h at 37°C in 5% CO2 and 100% humidity. The t = 0 h control plate consisted of cells plated on the same day as the other cells, but after 24 h at 37°C in 5% CO2 and 100% humidity, only 100 μL medium was added and the cells were fixed immediately with 50% trichloroacetic acid (TCA) in milliQ water (25 μL per well) and put at 4°C for at least 1 h. Plates were washed five times with water and dried. Cells were stained with the SRB protein dye (0.4% (w/v) in 1% acetic acid. Excess dye was washed away four times with 1% acetic acid and plates were dried again. 200 μL of Tris (10 mM Tris (hydroxymethyl)-aminomethane in MQ) was added and optical density (OD) was read at 492 nm after mixing 2–3 min on a plate shaker.

[2] = tested on: CHO/C5-hRFC cells; test: Growth inhibition, SRB assay, CHO/C5-hRFC (human RFC transfected); format: cell-based, Chinese hamster; conditions: for IC50: CHO/C5-hRFC; for Protection by l-LV, increase of the IC50 value: hRFC-transfected cells, 5 µM l-LV
Method: as §1

[3] = tested on: AA8 cells; test: Growth inhibition, SRB assay, AA8 (parental CHO); format: cell-based, Chinese hamster; conditions: for IC50: AA8 parental CHO
Method: as §1

[4] = tested on: H460 cells; test: Growth inhibition, SRB assay, H460 (NSCLC); format: cell-based, human; conditions: H460, SRB, read-out: IC50, 72 h drug exposure
Method: as §1

[5] = tested on: CHO/C5-MOCK cells; test: Growth inhibition, SRB assay, CHO/C5-MOCK (empty vector); format: cell-based, Chinese hamster
Method: as §1

[6] = tested on: MSTO-211H cells; test: Growth inhibition, SRB assay, MSTO-211H (MPM); format: cell-based, human; conditions: SRB, read-out: IC50, 72 h drug exposure
Method: as §1

[7] = tested on: CHO/C5 cells; test: Growth inhibition, SRB assay, CHO/C5 (RFC-deficient); format: cell-based, Chinese hamster
Method: as §1

[8] = tested on: H292 cells; test: Growth inhibition, SRB assay, H292 (NSCLC); format: cell-based, human; conditions: H292, SRB, read-out: IC50, 72 h drug exposure
Method: as §1

[9] = tested on: H28 cells; test: Growth inhibition, SRB assay, H28 (MPM); format: cell-based, human; conditions: H28, SRB, read-out: IC50, 72 h drug exposure
Method: as §1

[10] = tested on: colon cancer cell lines; test: Growth inhibition, SRB assay, panel of colon cancer cell lines; format: cell-based, human; conditions: selected colon cancer cell lines: WiDr, HT29, SW948 and SW1398 cells; 5 µM l-LV
Method: as §1

[11] = biological target: T1, reduced folate carrier (RFC/SLC19A1) (Homo sapiens, UniProt P41440); test: Inhibition of RFC-mediated [3H]-l-LV influx in CEM-7A cells; format: cell-based
T1 construct: CEM-7A cells, which display 30-fold RFC overexpression relative to wild-type CCRF-CEM cells; endogenous in cells; host or cells: CEM-7A (CCRF-CEM variant, RFC+++ 30-fold)
T1 sequence (P41440 1-591): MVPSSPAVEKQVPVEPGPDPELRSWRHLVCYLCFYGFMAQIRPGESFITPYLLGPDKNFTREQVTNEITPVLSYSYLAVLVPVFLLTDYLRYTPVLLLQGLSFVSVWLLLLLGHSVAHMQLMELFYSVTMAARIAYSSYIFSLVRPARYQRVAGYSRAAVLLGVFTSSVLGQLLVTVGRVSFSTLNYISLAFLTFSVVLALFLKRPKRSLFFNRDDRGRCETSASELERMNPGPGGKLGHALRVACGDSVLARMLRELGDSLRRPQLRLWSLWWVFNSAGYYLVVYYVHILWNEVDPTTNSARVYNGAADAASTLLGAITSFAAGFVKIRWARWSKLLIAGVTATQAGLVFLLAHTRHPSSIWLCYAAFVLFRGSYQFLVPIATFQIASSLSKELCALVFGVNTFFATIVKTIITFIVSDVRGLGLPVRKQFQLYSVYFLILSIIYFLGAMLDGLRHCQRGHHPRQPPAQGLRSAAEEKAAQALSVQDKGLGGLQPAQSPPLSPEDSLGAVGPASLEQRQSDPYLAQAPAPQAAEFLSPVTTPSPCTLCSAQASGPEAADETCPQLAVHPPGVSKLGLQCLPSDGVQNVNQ
Method: (§2) In order to determine whether the LV isomers were substrates for either folate receptor α (FRα), RFC and/or PCFT, we used model systems with established overexpression of these receptors or transporters ([Westerhof et al., 1995a]; [Westerhof et al., 1995b]; [Lasry et al., 2008]; [Van der Heijden et al., 2009]).
CEM-7A cells (2 × 10^6) were suspended in 1 mL HBSS and the assay was initiated by addition of 25 μL 200 μM [^3H]-l-LV; 5,000 pmol (i.e., 5 μM final concentration). Incubations proceeded for 2 min at 37°C in the absence and presence of increasing amounts of unlabelled LV/antifolate drug. Blanks consisted of a separate incubation at 4°C or incubation with 100-fold molar excess of unlabelled l-LV. [^3H]-l-LV influx was terminated by adding 9 mL ice-cold HBSS, centrifugation and an additional wash of the cells with 10 mL ice-cold buffer. Cell pellets were then assessed for radioactivity. Relative affinities for RFC are expressed as the concentration of unlabelled drug necessary to inhibit [^3H]-l-LV uptake by 50%.

[12] = biological target: T2, folate receptor α (FRα) (Homo sapiens, UniProt P15328); test: Intact cell competitive binding assay, displacement of [3H]-folic acid from FRα in KB cells
T2 construct: endogenous in cells; host or cells: KB cells (FRα++)
T2 sequence (P15328 25-257): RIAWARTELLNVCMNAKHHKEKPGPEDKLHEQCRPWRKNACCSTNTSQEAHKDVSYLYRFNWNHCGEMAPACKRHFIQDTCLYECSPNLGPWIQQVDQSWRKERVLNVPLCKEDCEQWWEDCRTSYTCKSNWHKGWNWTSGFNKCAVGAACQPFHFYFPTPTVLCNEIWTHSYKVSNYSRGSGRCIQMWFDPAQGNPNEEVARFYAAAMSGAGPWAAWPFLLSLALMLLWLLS
Method: as §2
For FRα we used KB cells ([Westerhof et al., 1995b]). An intact cell binding assay for competitive binding was performed as described previously ([Westerhof et al., 1995a]). Briefly, cells were washed with Hanks balanced salt solution and 6 mM glucose (HBSS, pH 7.4), suspended in 1 mL of this solution (1*10^6 for KB cells) and incubated at 4°C for 15 min with 100 pmol [^3H]-folic acid [(^3H)-FA], in the presence and absence of unlabelled folic acid or LV stereoisomers. Cells were collected by centrifugation and analysed for radioactivity. Relative affinities for FRα were defined as the inverse ratio of compound to displace 50% of radioactive folic acid from FRα. The relative affinity of folic acid was set at 1.

[13] = biological target: T3, human PCFT (Homo sapiens, UniProt Q96NT5); test: Inhibition of PCFT-mediated [3H]-l-LV influx in CHO/C5-PCFT cells; format: cell-based, Chinese hamster (CHO cells)
T3 construct: expressed in transfected cells; host or cells: CHO/C5 (RFC-deficient Chinese hamster ovary cells, no PCFT)
T3 sequence (Q96NT5 1-459): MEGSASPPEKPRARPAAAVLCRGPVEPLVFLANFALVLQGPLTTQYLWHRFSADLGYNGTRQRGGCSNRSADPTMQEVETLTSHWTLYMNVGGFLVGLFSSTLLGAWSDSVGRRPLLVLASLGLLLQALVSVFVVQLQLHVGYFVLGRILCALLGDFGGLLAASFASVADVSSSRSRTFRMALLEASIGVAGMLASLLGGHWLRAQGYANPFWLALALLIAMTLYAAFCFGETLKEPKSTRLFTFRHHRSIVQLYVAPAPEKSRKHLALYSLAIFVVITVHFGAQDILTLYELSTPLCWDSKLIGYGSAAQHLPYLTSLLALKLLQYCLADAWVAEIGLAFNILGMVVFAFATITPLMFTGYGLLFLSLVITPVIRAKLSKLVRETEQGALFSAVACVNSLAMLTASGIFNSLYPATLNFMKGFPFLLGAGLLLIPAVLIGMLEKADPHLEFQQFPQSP
Method: as §2
The competitive inhibition by 2.5 μM [^3H]-l-LV influx of PCFT was measured essentially as described for the RFC assay, except that the incubation time was 3 min, at pH 5.5 (the optimal pH for PCFT) and pH 7.4 with increasing amounts of unlabelled LV stereoisomers/antifolate drug. For PCFT too, relative affinities were expressed as the concentration of unlabelled drug necessary to inhibit 50% of [^3H]-l-LV influx.

[14] = Cricetulus griseus, antifolate alone

Row | SMILES | IC50 [1, 14] [µM] | IC50 ([1]; antifolate + 5 µM l-LV) [µM] | IC50 ([2]; antifolate + 5 µM l-LV) [µM] | IC50 [2, 14] [µM] | Protection by l-LV, increase of the IC50 value [2] [fold] | IC50 ([3]; antifolate + 5 µM l-LV) [µM] | IC50 [3, 14] [µM] | IC50 [5, 14] [µM] | IC50 ([5]; antifolate + 5 µM l-LV) [µM] | IC50 [7, 14] [µM] | IC50 ([7]; antifolate + 5 µM l-LV) [µM] | also measured
1 | Cc1nc2ccc(CN(C)c3ccc(C(=O)N[C@@H](CCC(=O)O)C(=O)O)s3)cc2c(=O)[nH]1 [RTX, raltitrexed] | 4.33 | 52.6 | 11.7 | 0.008 | 1462 | 2.92 | 0.019 | 2.4 | > 100 | 2.73 | 6.68 | IC50 ([4]; antifolate + 5 µM l-LV): 19.8 µM; IC50 ([4]; Homo sapiens, NCI-H460, 72 h, antifolate alone): 0.022 ± 0.0009 µM; IC50 ([6]; Homo sapiens, 72 h, antifolate alone): 0.008 ± 0.0005 µM; IC50 ([6]; antifolate + 5 µM l-LV): 4.58 µM; IC50 ([8]; antifolate + 5 µM l-LV): 6.33 µM; IC50 ([8]; Homo sapiens, NCI-H292, 72 h, antifolate alone): 0.014 ± 0.0008 µM; IC50 ([9]; antifolate + 5 µM l-LV): 4.26 µM; IC50 ([9]; Homo sapiens, NCI-H28, 72 h, antifolate alone): 0.136 ± 0.016 µM
2 | Nc1nc2c(c(=O)[nH]1)N(C=O)C(CNc1ccc(C(=O)N[C@@H](CCC(=O)O)C(=O)O)cc1)CN2 (stereo partly drawn) [l-LV, 5-formyltetrahydrofolate] | – | – | – | – | – | – | – | – | – | – | – | Modulation (enhanced efficacy) of 5FU [10]: 2 fold; RFC substrate affinity of l-LV over d-LV [11]: 8 fold; IC50 ([11]; 5 µM [3H]-l-LV, 2 min, 37°C, read-out: Concentration for 50% inhibition of [3H]-l-LV influx (RFC)): 5.5 µM; Molar excess over folic acid required for displacement of [3H]-FA binding from FRα [12]: 15 fold; Relative affinity for FRα ([12]; 100 pmol [3H]-FA, inverse ratio of amount of drug displacing 50% of [3H]-FA, FA set to 1): 0.073; PCFT substrate affinity of l-LV over d-LV [13]: 3.5 fold; IC50 ([13]; CHO/C5/PCFT cells, 2.5 µM [3H]-l-LV, pH 5.5, 3 min, read-out: Concentration for 50% inhibition of PCFT-mediated [3H]-l-LV influx): 4 µM
3 | Nc1nc(=O)c2c([nH]1)NC[C@H](CNc1ccc(C(=O)N[C@@H](CCC(=O)O)C(=O)O)cc1)N2C=O [[^3H]-l-LV, [3′,5′,7,9-^3H(N)]-(6S)-Leucovorin] | – | – | – | – | – | – | – | – | – | – | – | PCFT influx rate of [3H]-l-LV at pH 7.4 compared to pH 5.5 ([13]; CHO/C5/PCFT cells, 2.5 µM [3H]-l-LV): 11% and 11.5%
4 | CN(Cc1cnc2nc(N)nc(N)c2n1)c1ccc(C(=O)N[C@@H](CCC(=O)O)C(=O)O)cc1 [MTX, methotrexate] | 3.39 | 41 | 1.45 | 0.02 | 72 | 6.6 | 0.038 | 6.67 | > 100 | 8.93 | > 100 | Fold less active than PLX ([3]; AA8 cells): 10 fold; 50% inhibition of [3H]-l-LV influx (RFC), fold higher concentration than l-LV [11]: 3 fold
